From patent US8933122B2, “Use of cationic surfactants as sporicidal agents” (Laboratorios Miret, S.A., priority 2008, dated 2015)

Test system: endospores from Clostridium sporogenes ATCC 7955
Experiment: Sporicidal activity, quantitative suspension test EN 13704:2002 (Example 5)
Assay type: cell-based
Conditions: 60 minutes contact, 20° C.; for Test of LAE sporicidal activity (Na), surviving spores count: water as interfering substance, N 1.3 × 10^6 cfu/mL
Method: The determination of the sporicidal activity of LAE has been carried out according to the European standard EN 13704:2002 Chemical disinfectant—Quantitative suspension test for the evaluation of sporicidal activity of chemical disinfectants used in food, industrial, domestic and institutional areas—Test method and requirements”.
A test suspension containing endospores from Clostridium sporogenes ATCC 7955 was prepared from a culture grown on a nutrient agar, to which additional sporulation enhancement ingredients were added. Plates were harvested with sterile water and endospores were purified by repeated centrifugations and resuspensions in water.
Neutralizer. The neutralizer mixture consisted of 30 g/L polysorbate 80 in water. The solution was intended to neutralize any chemicals so that these would not affect subsequent growth of the bacteria.
The sporicidal activity of a given product is defined by its capacity to reduce at least by 10^3 the amount of Clostridium sporogenes bacterial spores in suspension, in the conditions established in the method.
The product was in contact with a suspension of bacterial spores during an established period of time of 60 minutes. An interfering substance can be added to the suspension, in this case water. Next, the effect of the product is neutralized by adding a neutralizer previously chosen, preceding to the surviving spores count.
• 1. Spore suspension obtained from a spored-form culture of Clostridium sporogenes. • 2. Count of the spore suspension of Clostridium sporogenes. • 3. The possible toxic effect of the neutralizer on the spores in the absence of the product is valued. • 4. […] Results: Results are expressed as the reduction of viability of the spore suspension in regards to: […]
Sporicidal activity is calculated following the criteria of the Standard EN 13704: 2002 R=N×0.1/Na N is cfu/mL of the spore suspension. […] The calculated reduction (R) of a solution of: • 13 μg/mL of LAE is R<10^3 cfu/mL • 26 μg/mL of LAE is R<10^3 cfu/mL • 51 μg/mL of LAE is R>10^3 cfu/mL • 64 μg/mL of LAE is R>10^3 cfu/mL

CCCCCCCCCCCC(=O)N[C@@H](CCCN=C(N)N)C(=O)OCC.Cl [LAE, ethyl ester of the lauramide of the arginine monohydrochloride]
concentration displaying sporicidal activity (reduction equal or above 10^3) (EN 13704:2002): ≥ 51 μg/mL
Test of LAE sporicidal activity (Na), surviving spores count (LAE 13 μg/mL): 3.3 × 10^3 cfu/mL
Test of LAE sporicidal activity (Na), surviving spores count (LAE 26 μg/mL): 2.3 × 10^3 cfu/mL
